Assay results reported in US20090018106A1, “INTRAVENOUS FORMULATIONS OF PYRIDOXAL 5'- PHOSPHATE AND METHOD OF PREPARATION” (Medicure International Inc., priority 2005, published 2009).
Entries after “also recorded” stand apart in the source; their conditions may differ. Where two headings read alike, the source gives them in different places.

Tests used:
Format in all cases: in vivo, human
[1] = Safety and tolerability of single intravenous doses of P5P (Example Three)
Description: Methodology—This was a single-blind, single-dose escalation, non-randomized, 4-phase, non-crossover study designed to evaluate the safety and tolerability of P5P intravenous injectable solution at doses of 1, 5, 10, 20 mg/kg, administered to four groups of healthy male and female subjects under fasting conditions and to estimate pharmacokinetic parameters of P5P.
Safety data were collected for each subject throughout the study by recording vital signs, ECGs and reported adverse events.
Primary Endpoint—Safety Parameters—The safety parameters investigated in this study were vital signs measurements (blood pressure, pulse rate), ECG measurements (1, 2 and 12 hours post-dose), platelet function testing, and severity and causality of adverse events experienced by subjects during the study period and laboratory assessments (clinical chemistry, hematology, urinalysis).

[2] = Safety evaluation of once daily intravenous 10 mg/kg P5P for four days (Example Four)
Description: (§1) Data sets analyzed—Six (6) healthy, adult non-smokers were administered intravenously a single daily dose of 10 mg/kb of P5P for four consecutive days and completed the study. In accordance with the study protocol, data from all subjects who completed the study were used for pharmacokinetic and statistical analysis.
Safety Methods—The safety parameters investigated in this study were: adverse events, vital sign measurements, ECGs, physical examination and standard laboratory evaluations.

[3] = Single intravenous dose escalation of P5P, plasma pharmacokinetics (Examples Two and Three); settings: for Cmax / MRT / Tmax / Vd / clearance / AUC / half-life / AUC(0-t): both sexes, human, plasma; for Cmax / MRT / Tmax / Vd / clearance / AUC / half-life: iv; for AUC(0-t): read-out: AUC-T
Description: A phase one clinical trial was conducted to compare the pharmacokinetics of intravenously administered P5P and orally administered P5P. The trial was a single dose escalation study.
For intravenous administration, P5P was administered by bolus injection under fasting conditions. The following doses of P5P were studied: 1, 5, 10, and 20 mg/kg. 6 subjects were assigned to each dosage group.
P5P, pyridoxal, and 4-pyridoxic acid were evaluated in both plasma and urine over a 24 hour interval following either intravenous or oral dosing. The results are set out below in Tables 2 and 3.
Methodology—This was a single-blind, single-dose escalation, non-randomized, 4-phase, non-crossover study designed to evaluate the safety and […] subjects under fasting conditions and to estimate pharmacokinetic parameters of P5P.
Subjects were assigned to one of the four groups (six subjects per group) under fasting conditions.
Concentrations of pyridoxal-5′-phosphate (P5P) were measured from the plasma samples collected over a 24-bour interval after dosing in each phase.
Pharmacokinetic parameters: AUCt, AUCinf, Cmax, Tmax, Kel, Thalf, Vd, CL, MRT and F were estimated based on pyridoxal-5′-phosphate (P5P) plasma levels for each subject that was in the final data set.
The test product used was a P5P Intravenous Injectable Solution, 50 mg/ml, which was prepared in accordance with the methods of Example 1 (CanAm BioResearch Inc. Canada); Lot No.: LP1459: Manufacturing Date: 12/03. A single 1, 5, 10 or 20 mg/kg dose was given by intravenous injection. The duration of treatment was a single dose.
Secondary Endpoint—Pharmacokinetic (PK) Parameters—Plasma concentrations of pyridoxal-5′-phosphate (P5P) were measured by a validated analytical method. Based on these concentration levels, AUCt, AUCinf, Cmax, Tmax, Kel, Thalf, Vd, CL, MRT and F were estimated.
Statistical Methods—Descriptive statistics were calculated by treatments for the estimated pharmacokinetic parameters.

[4] = Once daily intravenous 10 mg/kg P5P for four days, urinary excretion and renal clearance (Example Four); settings: 10 mg/kg iv once daily, 4 days, P5P uncorrected, mean; for CL renal: human, urine and plasma, iv, 10 mg/kg, read-out: CLR, renal clearance (converted)
Description: as §1
Analytical Methods—Plasma and urine samples were used for analysis. P5P, PAL, and PA levels were determined by HPLC/FLD. The quantitation level was 5 ng/mL for plasma and 100 ng/mL for urine. The sample analysis calibration curve range was 5 ng/mL to 5000 ng/mL for plasma and 100 ng/mL to 50,000 ng/mL for urine.
Total and Renal Clearance—Total body clearance was estimated for P5P and was calculated as Dose/AUC0-inf.

[5] = 1 mg/kg, Group 1, P5P 1 mg/kg single iv, plasma P5P, mean
[6] = 1 mg/kg, P5P 1 mg/kg single iv bolus, fasting
[7] = 5 mg/kg, Group 2, P5P 5 mg/kg single iv, plasma P5P, mean
[8] = 5 mg/kg, P5P 5 mg/kg single iv bolus, fasting
[9] = 10 mg/kg, Group 3, P5P 10 mg/kg single iv, plasma P5P, mean
[10] = 10 mg/kg, Group 4, dose 10 mg/kg, single iv, plasma P5P, mean
[11] = 10 mg/kg, P5P 10 mg/kg single iv bolus, fasting
[12] = 20 mg/kg, P5P 20 mg/kg single iv bolus, fasting
[13] = ln(pK Parameter) = b0 + b1 * ln (Dose)
[14] = ln(pK Parameter) = b0 + b1 * ln (Dose), single iv 1-20 mg/kg

## Cc1ncc(COP(=O)(O)O)c(C=O)c1O [P5P, Pyridoxal 5′-phosphate, reference compound]
[1]; single iv dose, doses up to 20 mg/kg
  safety and tolerability: safe and well tolerated
[1]; single iv doses 1-20 mg/kg
  common side effects observed: nausea, vomiting and stomach upset
[2]; 10 mg/kg iv once daily, 4 days
  clinically significant elevated white blood cells (WBC) in urine (pyuria): observed for two subjects
  diarrhea or vomiting: No diarrhea or vomiting was reported
  overall safety profile: No serious, severe, or significant adverse events; also recorded: well tolerated with no serious or lasting treatment related effects
[2]; 1 subject, 10 mg/kg iv once daily, 4 days
  abnormal taste in the mouth: 16.7%
[2]; 2 subjects, 10 mg/kg iv once daily, 4 days
  dizziness (feels dizzy and dizziness): 33.3 % of subjects
[2]; 3 subjects, 10 mg/kg iv once daily, 4 days
  nausea: 50.0 % of subjects
[2]; 3 subjects, judged unrelated to the study medication
  inflammation at injection site: 50.0 % of subjects
[2]; six subjects, 10 mg/kg iv once daily, 4 days
  total adverse events: 40
[3]; Group 1, P5P 1 mg/kg single iv, plasma P5P, mean
  Kel: 0.14 h⁻¹
[3]; Group 2, P5P 5 mg/kg single iv, plasma P5P, mean
  Kel: 0.118 h⁻¹
[3]; Group 3, P5P 10 mg/kg single iv, plasma P5P, mean
  Kel: 0.12 h⁻¹
[3]; Group 4, dose 10 mg/kg, single iv, plasma P5P, mean
  Kel: 0.14 h⁻¹
[3]; [5]
  Cmax: 20 µg/mL
  MRT: 3.73 h
  Tmax: 8.4 min
  Vd: 13 L
  clearance: 29.3 mL/min
[3]; 1 mg/kg, Group 1, P5P 1 mg/kg single iv, plasma P5P, mean, read-out: AUC (O-t)
  AUC: 38.4 µg·h/mL
[3]; 1 mg/kg, Group 1, P5P 1 mg/kg single iv, plasma P5P, mean, read-out: AUC (o-inf)
  AUC: 39.1 µg·h/mL
[3]; 1 mg/kg, Group 1, P5P 1 mg/kg single iv, plasma P5P, mean, read-out: T½ (converted)
  half-life: 5.11 h
[3]; [6]
  Cmax: 20 ± 2.95 µg/mL
  Tmax: 8.4 ± 4.2 min
[3]; 1 mg/kg, P5P 1 mg/kg single iv bolus, fasting, read-out: T½ (converted)
  half-life: 5.11 ± 0.98 h
[3]; [7]
  Cmax: 98.8 µg/mL
  MRT: 3.52 h
  Tmax: 8.4 min
  Vd: 16.3 L
  clearance: 32.1 mL/min
[3]; 5 mg/kg, Group 2, P5P 5 mg/kg single iv, plasma P5P, mean, read-out: AUC (O-t)
  AUC: 173 µg·h/mL
[3]; 5 mg/kg, Group 2, P5P 5 mg/kg single iv, plasma P5P, mean, read-out: AUC (o-inf)
  AUC: 176 µg·h/mL
[3]; 5 mg/kg, Group 2, P5P 5 mg/kg single iv, plasma P5P, mean, read-out: T½ (converted)
  half-life: 5.89 h
[3]; [8]
  Cmax: 98.8 ± 16 µg/mL
  Tmax: 8.4 ± 4.2 min
[3]; 5 mg/kg, P5P 5 mg/kg single iv bolus, fasting, read-out: T½ (converted)
  half-life: 5.89 ± 0.39 h
[3]; [9]
  Cmax: 220 µg/mL
  MRT: 3.11 h
  Tmax: 6 min
  Vd: 18 L
  clearance: 35.2 mL/min
[3]; 10 mg/kg, Group 3, P5P 10 mg/kg single iv, plasma P5P, mean, read-out: AUC (o-inf)
  AUC: 312 µg·h/mL
[3]; 10 mg/kg, Group 3, P5P 10 mg/kg single iv, plasma P5P, mean, read-out: T½ (converted)
  half-life: 5.81 h
[3]; [10]
  Cmax: 424 µg/mL
  MRT: 3.32 h
  Tmax: 9 min
  Vd: 17.5 L
  clearance: 39.8 mL/min
[3]; 10 mg/kg, Group 4, dose 10 mg/kg, single iv, plasma P5P, mean, read-out: AUC (O-t)
  AUC: 577 µg·h/mL
[3]; 10 mg/kg, Group 4, dose 10 mg/kg, single iv, plasma P5P, mean, read-out: AUC (o-inf)
  AUC: 585 µg·h/mL
[3]; 10 mg/kg, Group 4, dose 10 mg/kg, single iv, plasma P5P, mean, read-out: T½ (converted)
  half-life: 5.03 h
[3]; [11]
  Cmax: 220 ± 9.52 µg/mL
  Tmax: 6 ± 1.8 min
[3]; 10 mg/kg, P5P 10 mg/kg single iv bolus, fasting, read-out: T½ (converted)
  half-life: 5.87 ± 0.89 h
[3]; [12]
  Cmax: 424 ± 96.9 µg/mL
  Tmax: 9 ± 4.2 min
[3]; 20 mg/kg, P5P 20 mg/kg single iv bolus, fasting, read-out: T½ (converted)
  half-life: 5.03 ± 0.72 h
[3]; over all single iv doses of P5P (1-20 mg/kg), read-out: apparent elimination half-life (converted)
  half-life: 5 to 6 h
[3]; P5P 1 mg/kg single iv bolus, fasting
  AUC(0-t): 38.4 ± 4.61 µg·h/mL
[3]; P5P 5 mg/kg single iv bolus, fasting
  AUC(0-t): 173 ± 31.9 µg·h/mL
[3]; P5P 10 mg/kg single iv bolus, fasting
  AUC(0-t): 308 ± 45.5 µg·h/mL
[3]; P5P 20 mg/kg single iv bolus, fasting
  AUC(0-t): 577 ± 62.5 µg·h/mL
[3]; [13]
  Significance of b1, lnAUCi: <0.0001
  Significance of b1, lnCl: 0.0128
  Significance of b1, lnCmax: <0.0001
  Significance of b1, lnMRT: 0.1568
  Significance of b1, lnThalf: 0.6177
[3]; [14]
  Coef. for Dose (b1), lnAUCi: 0.90
  Coef. for Dose (b1), lnCl: 0.10
  Coef. for Dose (b1), lnCmax: 1.03
  Coef. for Dose (b1), lnMRT: −0.05
  Coef. for Dose (b1), lnThalf: 0.02
  Intercept (b0), lnAUCi: 3.67
  Intercept (b0), lnCl: 7.44
  Intercept (b0), lnCmax: 2.98
  Intercept (b0), lnMRT: 1.29
  Intercept (b0), lnThalf: 1.67
[3]; single iv bolus vs single oral tablets
  bioavailability, intravenous versus oral: greater when intravenously administered rather than orally administered
[4]; Day 1
  Ae0-t, total amount excreted in urine: 848625 ng
  CL renal: 0.0465 mL/min
[4]; Day 4
  Ae0-t, total amount excreted in urine: 558650 ng
  CL renal: 0.029 mL/min
